Laboratory results published in patent publication US9168247B2, “Beta carboline derivatives useful in the treatment of proliferative disorders” (FACULTES UNIVERSITAIRES NOTRE DAME DE LA PAIX, priority 2010, dated 2015).
Read-outs that look alike come from different tables or passages of the source.

Key:
[1] = system: U373 glioma cells; experiment: MTT test, overall cell growth, U373; type: cell-based, human; conditions: 72 hours of incubation
Description: (§1) MTT tests were performed in order to rapidly, i.e., within 5 days, measure the effect of the present compounds on the overall cell growth. The test measured the number of metabolically active living cells that were able to transform the yellow product 3-(4,5-dimethylthiazol-2-yl)-2,5-diphenyl tetrazolium bromide (herein referred as MTT) into the blue product formazan dye by mitochondrial reduction. The amount of formazan obtained at the end of the experiment, measured by means of a spectrophotometer, is directly proportional to the number of living cells. Optical density determination thus enabled a quantitative measurement of the effect of the investigated compounds as compared to the control condition (untreated cells) and/or to other reference compounds.
(§2) Five human cancer cell lines set forth in Table 3 were used in the MTT tests. These cancer cell lines cover two histological cancer types including glioma (Hs683, T98G, U373), and oesophageal (OE21, OE33) cancers. The U373 cell line is apoptosis-resistant but autophagy-sensitive.
(§3) To perform the assay, cells were allowed to grow in 96-well micro-wells with a flat bottom with an amount of 100 μl of cell suspension per well with 5,000 to 8,000 cells/well depending on the cell type used. Each cell line was seeded in its appropriate culture medium.
(§4) The detailed experimental procedure was as follows: after a 24-hour period of incubation at 37° C., the culture medium was replaced by 100 μl of fresh medium in which the tested compound was previously dissolved, at the following molar concentrations: 1×10^−8 M, 5×10^−8 M, 1×10^−7 M, 5×10^−7 M, 1×10^−6 M, 5×10^−6 M, 1×10^−5 M, 5×10^−5 M and 1×10^−4 M. Each experiment was performed in sestuplicate (6 times).
(§5) After 72 hours of incubation at 37° C. with (experimental conditions) or without (control condition) the compound to be tested, the medium was replaced by 100 μl MTT dissolved in RPMI (1640 without phenol red) at a concentration of 0.5 or 1 mg/ml. The micro-wells were subsequently incubated during 3 hours and a half at 37° C. and centrifuged at 1300 rpm during 10 minutes. MTT was removed and formazan crystals formed were dissolved in […]. The micro-wells were shaken for 5 minutes and read on a spectrophotometer at wavelengths of 570 nm (maximal formazan absorbance).
(§6) For each experimental condition, the mean optical density was calculated, allowing the determination of the percentage of remaining living cells in comparison to the control.
(§7) The origin of all the cell lines we used, along with their biological characteristics, and the validation procedures of the MTT colorimetric assay as employed here are fully detailed in Van Quaquebeke et al., 2005, J Med Chem 48:849-856; Ingrassia et al., 2009, J Med Chem 52:1100-1114; Mathieu et al., 2009, J Cell Mol Med, Feb. 20, 2009.

[2] = system: T98G glioma cells; experiment: MTT test, overall cell growth, T98G; type: cell-based, human; conditions: 72 hours of incubation
Description: as §1, §2, §3, §4, §5, §6, §7

[3] = system: Hs683 glioma cells; experiment: MTT test, overall cell growth, Hs683; type: cell-based, human
Description: as §1, §2, §3, §4, §5, §6, §7

[4] = system: OE21 oesophageal cancer cells; experiment: MTT test, overall cell growth, OE21; type: cell-based, human
Description: as §1, §2, §3, §4, §5, §6, §7

[5] = system: OE33 oesophageal cancer cells; experiment: MTT test, overall cell growth, OE33; type: cell-based, human
Description: as §1, §2, §3, §4, §5, §6, §7

[6] = system: human cancer cell lines (U373, T98G, Hs683, OE21, OE33); experiment: MTT test, mean over the cancer cell lines; type: cell-based
Description: as §1, §2, §3, §4, §5, §6, §7

[7] = system: U373 cells; experiment: Cellular imaging (videomicroscopy) of cultured U373 cells: antiproliferative class and global growth ratio; type: cell-based, human; design: key to Anti proliferative class / anti-proliferative class-GGR: class I: actually cytostatic for 3 days (<10% of cell death at the 3rd day); class II: cyctostatic but becomes cytotoxic with <10% cell death on the 2nd day, and >20% of cell death on the 3rd day; class III: cytostatic but rapidly becomes cytotoxic with <10% cell death on the 1st day, >20% of cell death on the 2nd day and >50% of cell death on the 3rd day; class IV: cytotoxic (>50% of cell death on the first day); conditions: for global growth ratio (GGR): GG treated cells/GG control cells, 72 h after drug addition, drug at its IC50 (MTT-test determined); for Anti proliferative class: cellular imaging of cultured U373 cells over three consecutive days
Source text: The effects of the di- and tri-substituted beta-carboline derivatives as described herein can also be determined on cell proliferation, migration and morphology by means of a cellular imaging approach (Debeir et al., Cytometry 60:29-40, 2004; Debeir et al., IEEE Trans Med Imaging 24:697-711, 2005) either in, e.g., the human U373-MG glioma cell line, which is apoptosis-resistant but autophagy-sensitive (Lefranc F et al., Neurosurgery 2008) or in, e.g., the human A549 non-small-cell-lung cancer cell line, which is apoptosis-resistant and autophagy-resistant (Mijatovic T et al., Neoplasia 2006, May; 8(5):402-12).
[…] The experiments are conducted in quadruplicates.
The behaviour of the cells, in terms of morphology, growth and death are thus investigated. The effect on the overall growth is measured by counting the number of cells on the first (0 h) and the last image (72 h) of each film. The global growth ratio (GGR) is then deduced by dividing the number of cells on the last image by the number of cells on the first image. The ratio GGRtreated cells/GGRcontrol cells is further calculated thereby providing a value that describes the effect of compounds of the present invention on the overall cell growth.
The methodology is fully described and validated in Debeir et al., 2008, Exp Cell Res 314:2985-2998 and Mathieu et al., 2009, J Cell Mol Med, Feb. 20, 2009.

[8] = Homo sapiens, Hs 683, 72 hours of incubation
[9] = Homo sapiens, OE21, 72 hours of incubation
[10] = Homo sapiens, OE33, 72 hours of incubation
[11] = Homo sapiens, mean over the cancer cell lines, MTT test, read-out: IC50 Mean ± SEM
[12] = mean over the cancer cell lines, MTT test, read-out: IC50 Mean ± SEM

Structure (SMILES) | IC50 ([1]; Homo sapiens, U373 MG) | IC50 ([2]; Homo sapiens, T98G) | IC50 [3, 8] | IC50 [4, 9] | IC50 [5, 10] | IC50 [6, 11] | global growth ratio (GGR) [7] | Anti proliferative class [7] | IC50 ([6]; Homo sapiens, Table 4, mean over cell lines, read-out: IC50 μM growth inhibition (MTT test)) | IC50 [1] | IC50 [2] | IC50 ([3]; 72 hours of incubation) | IC50 ([4]; 72 hours of incubation) | IC50 ([5]; 72 hours of incubation) | IC50 [6, 12] | IC50 ([6]; Homo sapiens, Glioma cell, MTT assay, submicromolar range, e.g. as low as, read-out: mean anti-proliferative effect on the glioma cell lines)
Cc1nccc2c3ccc(OCc4cccc(F)c4)cc3n(Cc3cccc(F)c3)c12 [CV5, 1-methyl-7-(3-fluorobenzyloxy)-9-(3-fluorobenzyl)-β-carboline] | 400 ± 60 nM | 27000 ± 1000 nM | 17500 ± 900 nM | 7900 ± 200 nM | 16000 ± 2000 nM | 14 ± 5 µM | 0.9 | I (class I: actually cytostatic for 3 days (<10% of cell death at the 3rd day)) | – | – | – | – | – | – | – | –
Cc1nccc2c3ccc(OCc4ccc(F)cc4)cc3n(Cc3ccc(F)cc3)c12 [CV11, 1-methyl-7-(4-fluorobenzyloxy)-9-(4-fluorobenzyl)-β-carboline] | 30000 ± 1000 nM | 14000 ± 2000 nM | 17000 ± 2000 nM | 15000 ± 2000 nM | 25000 ± 2000 nM | 20 ± 3 µM | 0.2 | III | – | – | – | – | – | – | – | –
Cc1nccc2c3ccc(OCC4CCCCC4)cc3n(CC3CCCCC3)c12 [CV12, 1-methyl-7-cyclohexylmethyloxy-9-cyclohexylmethyl-β-carboline] | 30700 ± 800 nM | 32000 ± 1000 nM | 30000 ± 2000 nM | 17000 ± 2000 nM | 15000 ± 3000 nM | 25 ± 4 µM | 0.2 | II | 25 µM | – | – | – | – | – | – | –
Cc1c2c(cc[n+]1Cc1ccccc1)c1ccc(OCc3cccc(F)c3)cc1n2Cc1cccc(F)c1.[Br-] [CV16, 1-methyl-2-benzyl-7-(3-fluorobenzyl)oxy-9-(3-fluorobenzyl)43-carbolin-2-ium bromide] | – | – | – | – | – | – | 0.4 | I (class I: actually cytostatic for 3 days (<10% of cell death at the 3rd day)) | – | 820 ± 80 nM | 970 ± 20 nM | 2800 ± 400 nM | 400 ± 100 nM | 2900 ± 100 nM | 1.6 ± 0.5 µM | –
Cc1c2c(cc[n+]1Cc1ccc(F)cc1)c1ccc(OCc3ccccc3)cc1n2Cc1ccccc1.[Br-] [CV17, 1-methyl-2-(4-fluorobenzyl)-7-benzyloxy-9-benzyl-β-carbolin-2-ium bromide] | 590 ± 60 nM | 560 ± 50 nM | 1600 ± 300 nM | 610 ± 40 nM | 2400 ± 300 nM | 1.2 ± 0.4 µM | 0.4 | I (class I: actually cytostatic for 3 days (<10% of cell death at the 3rd day)) | – | – | – | – | – | – | – | –
Cc1c2c(cc[n+]1Cc1ccccc1F)c1ccc(OCc3ccccc3)cc1n2Cc1ccccc1.[Br-] [CV18, 1-methyl-2-(2-fluorobenzyl)-7-benzyloxy-9-benzyl-β-carbolin-2-ium bromide] | 500 ± 200 nM | 370 ± 10 nM | 440 ± 40 nM | 380 ± 20 nM | 700 ± 80 nM | 0.48 ± 0.06 µM | 0.3 | I (class I: actually cytostatic for 3 days (<10% of cell death at the 3rd day)) | – | – | – | – | – | – | – | 0.34 to 0.8 µM
Cc1c2c(cc[n+]1Cc1ccccc1F)c1ccc(OCc3ccc(F)cc3)cc1n2Cc1ccc(F)cc1.[Br-] [CV25, 1-methyl-2-(2-fluorobenzyl-7-(4-fluorobenzyl)oxy-9-(4-fluorobenzyl)-β-carbolin-2-ium bromide] | – | – | – | – | – | – | – | – | – | 460 ± 80 nM | 430 ± 20 nM | 1200 ± 400 nM | 1600 ± 300 nM | 1600 ± 200 nM | 1.1 ± 0.3 µM | –
Cc1c2c(cc[n+]1Cc1ccccc1F)c1ccc(OCc3ccc(F)cc3)cc1n2Cc1ccc(F)cc1.[Br-] [CV25] | – | – | – | – | – | – | 0.4 | I (class I: actually cytostatic for 3 days (<10% of cell death at the 3rd day)) | – | – | – | – | – | – | – | –
Cc1c2c(cc[n+]1CC(=O)c1ccccc1)c1ccc(OCc3ccccc3)cc1n2Cc1ccccc1 [CV52] | – | – | – | – | – | – | – | – | – | 22000 ± 2000 nM | 19000 ± 2000 nM | 26000 ± 3000 nM | 17000 ± 2000 nM | – | 21 ± 2 µM | –
CCCCCC[n+]1ccc2c3ccc(OCc4ccccc4)cc3n(Cc3ccccc3)c2c1C [CV53, 1-methyl-2-hexyl-7-benzyloxy-9-benzyl-β-carbolin-2-ium bromide] | 660 ± 90 nM | 3100 ± 500 nM | 600 ± 100 nM | 1900 ± 300 nM | – | 1.5 ± 0.6 µM | – | – | – | – | – | – | – | – | – | –
CCC[n+]1ccc2c3ccc(OCc4ccccc4)cc3n(Cc3ccccc3)c2c1C [CV56, 1-methyl-2-propyl-7-benzyloxy-9-benzyl-β-carbolin-2-ium bromide] | 2500 ± 300 nM | 11000 ± 1000 nM | 600 ± 100 nM | 3400 ± 800 nM | – | 5 ± 2 µM | – | – | – | – | – | – | – | – | – | –
Cc1c2c(cc[n+]1CCO)c1ccc(OCc3ccccc3)cc1n2Cc1ccccc1 [PL1] | – | – | – | – | – | – | – | – | – | 9000 ± 2000 nM | 61000 ± 6000 nM | 31000 ± 3000 nM | 25000 ± 4000 nM | – | 32 ± 11 µM | –
Cc1c2c(cc[n+]1CCC(C)C)c1ccc(OCc3ccccc3)cc1n2Cc1ccccc1 [PL2, 1-methyl-2-(3-methylbutyl)-7-benzyloxy-9-benzyl-β-carbolin-2-ium bromide] | 390 ± 10 nM | 1200 ± 200 nM | 370 ± 30 nM | 500 ± 90 nM | – | 0.6 ± 0.2 µM | – | – | – | – | – | – | – | – | – | –
Cc1c2c(cc[n+]1CCc1ccccc1)c1ccc(OCc3ccccc3)cc1n2Cc1ccccc1 [PL4, 1-methyl-2-phenethyl-7-benzyloxy-9-benzyl-β-carbolin-2-ium bromide] | 2000 ± 300 nM | 2400 ± 400 nM | 2310 ± 90 nM | 2400 ± 300 nM | – | 2.3 ± 0.1 µM | – | – | – | – | – | – | – | – | – | –
Cc1c2c(cc[n+]1CCO)c1ccc(OCCC(C)C)cc1n2CCC(C)C [PL11] | – | – | – | – | – | – | – | – | – | 2500 ± 300 nM | 2900 ± 400 nM | 4000 ± 300 nM | 7600 ± 300 nM | – | 4 ± 1 µM | –
Cc1c2c(cc[n+]1CCC(C)C)c1ccc(OCCC(C)C)cc1n2CCC(C)C [PL12] | – | – | – | – | – | – | – | – | – | 220 ± 30 nM | 410 ± 10 nM | 260 ± 10 nM | 480 ± 40 nM | – | 0.34 ± 0.06 µM | –
Cc1c2c(cc[n+]1Cc1ccccc1)c1ccc(OCCC(C)C)cc1n2CCC(C)C [PL13] | – | – | – | – | – | – | – | – | – | 3400 ± 100 nM | 3500 ± 100 nM | 3100 ± 100 nM | 3700 ± 100 nM | – | 3.4 ± 0.1 µM | –
COc1ccc2c(c1)[nH]c1c(C)nccc12 [harmine, reference compound] | 32000 ± 2000 nM | 24000 ± 2000 nM | – | 32000 ± 2000 nM | 18000 ± 1000 nM | 28 ± 3 µM | – | I (class I: actually cytostatic for 3 days (<10% of cell death at the 3rd day)) | – | – | – | – | – | – | – | –
